Patent US9006487B2, “Amine-containing lipids and uses thereof” (Massachusetts Institute of Technology, priority 2005, dated 2015)
Values joined by “and” are separate entries in the source; they are usually repeats but may differ in a detail not shown here. Equal values may be shown once.

Tested on: cos-7 cells
Assay: DNA transfection: luciferase expression relative to Lipofectamine 2000
Assay type: cell-based
Conditions: 300 ng Luciferase DNA per well, luciferase assay after 48 hours
In short: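 cos-7 cells were transfected with 300 ng/well luciferase DNA complexed with lipid at ratios from 2.5 to 25 w/w. Bright-Glo luminescence was read after 48 hours and converted to ng luciferase by standard curve. Data are percent of the Lipofectamine 2000 control (2.5 w/w).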

Structure (SMILES)	Luciferase expression as a percentage of that achieved using Lipofectamine 2000 (lipid/DNA 2.5 w/w)	Luciferase expression as a percentage of that achieved using Lipofectamine 2000 (lipid/DNA 5 w/w)	Luciferase expression as a percentage of that achieved using Lipofectamine 2000 (lipid/DNA 10 w/w)	Luciferase expression as a percentage of that achieved using Lipofectamine 2000 (lipid/DNA 15 w/w)	Luciferase expression as a percentage of that achieved using Lipofectamine 2000 (lipid/DNA 20 w/w)	Luciferase expression as a percentage of that achieved using Lipofectamine 2000 (lipid/DNA 25 w/w)
CCCCCCCCCCCCCCOC(=O)CCN(CCC(=O)OCCCCCCCCCCCCCC)CCN(CC)CC [LF75]	0.7%	1.0%	0.7%	1.9%	1.7%	1.7%
CCCCCCCCCCCCOC(=O)CCN1CCCN(CCC(=O)OCCCCCCCCCCCC)CC1 [LD70]	0.1%	0.1%	0.6%	0.6%	0.6%	0.6%
CCCCCCCCCCCCCCOC(=O)CCN(CCC(=O)OCCCCCCCCCCCCCC)CCC1CCCN1C (stereo not drawn) [LF77]	3.7%	25.1%	28.2%	24.1%	17.0%	22.1%
CCCCCCCCCCOC(=O)CC[N+](C)(CCC(=O)OCCCCCCCCCC)CC1COC(C)(C)O1.[I-] (stereo not drawn) [QB7]	0.0%	0.0%	0.0%	0.0%	0.0%	0.0%
CCCCCCCCCCCCCCCOC(=O)CCN(CCCCO)CCC(=O)OCCCCCCCCCCCCCCC [LG28]	0.2%	0.5%	0.2%	0.2%	0.1%	0.2%
CCCCCCCCCCOC(=O)CCN(CCCN(C)C)CCC(=O)OCCCCCCCCCC [LB80]	0.7%	0.8%	0.1%	0.2%	1.0%	1.5%
CCCCCCCCCCCCCCOC(=O)CCN(CCC(=O)OCCCCCCCCCCCCCC)C[C@H](C)O [LF22]	0.1%	0.1%	0.1%	0.1%	0.1%	0.1%
CCCCCCCCCCCCCCOC(=O)CCN(CCC(=O)OCCCCCCCCCCCCCC)CC(C)(C)CO [LF33]	0.1%	0.1%	0.1%	0.1%	0.1%	0.1%
CCCCCCCCCCCCCCCOC(=O)CCN(CCC(=O)OCCCCCCCCCCCCCCC)CCN1CCOCC1 [LG90]	0.1% and 0.6%	0.1% and 0.6%	0.0% and 0.4%	0.0% and 0.4%	0.1% and 0.4%	0.0% and 0.4%
CCCCCCCCCCOC(=O)CCN(CCN(CCC(=O)OCCCCCCCCCC)C(C)C)C(C)C [LB62]	0.1%	0.1%	0.1%	0.1%	0.1%	0.1%
CCCCCCCCCCCCCCOC(=O)CCN(CCCN(CC)CC)CCC(=O)OCCCCCCCCCCCCCC [LF81]	0.5%	1.6%	1.5%	4.9%	4.6%	4.0%
CCCCCCCCCCCCCCCOC(=O)CCN(CCC(=O)OCCCCCCCCCCCCCCC)CCN1CCCCC1 [LG82]	0.2%	0.2%	0.6%	0.8%	0.5%	1.2%
CCCCCCCCCCOC(=O)CCN(CC)CCN(CC)CCC(=O)OCCCCCCCCCC [LB61]	0.1%	0.1%	0.1%	0.1%	0.1%	0.1%
CCCCCCCCCCCCCCOC(=O)CCN1CCCN(CCC(=O)OCCCCCCCCCCCCCC)CC1 [LF70]	0.1%	0.1%	0.2%	0.3%	0.2%	0.3%
CCCCCCCCCCCCCCCCCCOC(=O)CCN(CCC(=O)OCCCCCCCCCCCCCCCCCC)C[C@H](C)O [LH22]	0.0%	0.0%	0.0%	0.0%	0.0%	0.0%
CCCCCCCCCCCCCCCOC(=O)CCN(CCC(=O)OCCCCCCCCCCCCCCC)CC(C)(C)CO [LG33]	0.1%	0.1%	0.1%	0.1%	0.1%	0.1%
CCCCCCCCCCOC(=O)CCN(CC)CCCN(CC)CCC(=O)OCCCCCCCCCC [LB64]	0.1%	0.1%	0.2% and 0.1%	0.1%	0.1%	0.2% and 0.1%
CCCCCCCCCCCCCCOC(=O)CCN(CC)CCN(CC)CCC(=O)OCCCCCCCCCCCCCC [LF61]	0.1%	0.1%	0.1%	0.1%	0.1%	0.1%
CCCCCCCCCCCCCCOC(=O)CCN(CCCOC)CCC(=O)OCCCCCCCCCCCCCC [LF1]	0.1%	0.1%	0.0%	0.0%	0.1%	0.1%
CCCCCCCCCCCCCCOC(=O)CCN(CCC(=O)OCCCCCCCCCCCCCC)CCN1CCOCC1 [LF90]	0.4% and 0.5%	0.5% and 0.4%	0.3% and 0.7%	1.3% and 0.4%	1.1% and 0.4%	1.5% and 0.4%
